Experimental data: patent US20060069132A1, “Azolecarboxamide herbicides” (priority 2004, published 2006)

Columns and labels:
[1] = test system: velvetleaf; assay: Test C pre-/postemergence herbicide test; assay type: in vivo, Abutilon theophrasti
In short: (§1)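 Greenhouse-grown plants were evaluated visually 12 to 14 days after treatment, with 100 meaning complete control and 0 no effect. Application was preemergence, or postemergence at 2 to 18 cm.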

[2] = test system: yellow nutsedge; assay: Test C pre-/postemergence herbicide test; assay type: in vivo, Cyperus esculentus
In short: as §1

[3] = test system: barnyardgrass; assay: Test C flooded paddy test; assay type: in vivo, Echinochloa crus-galli; conditions: for Plant response rating, Barnyardgrass: 500 g ai/ha, visual rating after 12 to 14 days
In short: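 After a postemergence application at 1 to 4 leaves (plants 2–18 cm high), or at 2 leaves for barnyardgrass in flooded paddy, plants stayed in the greenhouse for 12 to 14 days. Damage was then judged visually relative to control plants, with 100 indicating complete control.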

[4] = test system: common (oilseed) sunflower; assay: Test C pre-/postemergence herbicide test; assay type: in vivo, Helianthus annuus
In short: as §1

[5] = test system: bermudagrass; assay: Test C pre-/postemergence herbicide test; assay type: in vivo, Cynodon dactylon; conditions: for Bermudagrass plant response rating: Preemergence
In short: as §1

[6] = test system: woolly cupgrass; assay: Test C pre-/postemergence herbicide test; assay type: in vivo, Eriochloa villosa
In short: as §1

[7] = test system: giant foxtail; assay: Test C pre-/postemergence herbicide test; assay type: in vivo, Setaria faberi
In short: as §1

[8] = 62 g ai/ha, preemergence, scale 0 to 100
[9] = 250 g ai/ha, scale 0-100, preemergence
[10] = 500 g ai/ha, scale 0 to 100 (0 no effect, 100 complete control), visual, 12 to 14 days, preemergence
[11] = 62 g ai/ha, scale 0 to 100 (0 no effect, 100 complete control)
[12] = 125 g ai/ha, scale 0 to 100 (0 no effect, 100 complete control)
[13] = 250 g ai/ha, scale of 0 to 100, 0 is no effect, 100 is complete control
[14] = scale 0 to 100 (0 no effect, 100 complete control)
[15] = 62 g ai/ha, preemergence, scale 0 to 100, 0 no effect, 100 complete control
[16] = 125 g ai/ha, scale 0 (no effect) to 100 (complete control), visual, 12 to 14 days, preemergence
[17] = 500 g ai/ha, scale 0 to 100, 0 no effect, 100 complete control
[18] = Preemergence, 500 g ai/ha, scale 0 to 100, 0 no effect, 100 complete control

Compound | Plant response rating, Velvetleaf [1, 8] | Plant response rating, Velvetleaf [1, 9] | Plant response rating, Velvetleaf [1, 10] | Plant response rating, Nutsedge, Yellow [2, 8] | Plant response rating, Nutsedge, Yellow [2, 9] | Plant response rating, Nutsedge, Yellow [2, 10] | Barnyardgrass plant response rating [3, 11] | Barnyardgrass plant response rating [3, 12] | Barnyardgrass plant response rating [3, 13] | Plant response rating, Barnyardgrass [3, 14] | Plant response rating, Sunflower [4, 9] | Plant response rating, Sunflower [4, 10] | Plant response rating, Bermudagrass [5, 15] | Plant response rating, Bermudagrass [5, 9] | Plant response rating, Cupgrass, Woolly [6, 8] | Plant response rating, Cupgrass, Woolly [6, 9] | Plant response rating, Foxtail, Giant [7, 8] | Plant response rating, Foxtail, Giant [7, 9] | Plant response rating, Foxtail, Giant [7, 10] | Plant response rating, Nutsedge, Yellow [2, 16] | also measured
CCc1nn(C(C)C)nc1C(=O)Nc1cccc(C(=O)N(C)CC)c1 [Compound 386] | 70 | 100 | 100 | 0 | 40 | 60 | 30 | 50 | 80 | 95 | 85 | 85 | 90 | 95 | 50 | 95 | 80 | 90 | 100 | – | Plant response rating (0 = no effect, 100 = complete control), Velvetleaf ([1]; 125 g ai/ha, preemergence): 100; Plant response rating (0 = no effect, 100 = complete control), Nutsedge, Yellow ([2]; 125 g ai/ha, preemergence): 10; Plant response rating (0 = no effect, 100 = complete control), Sunflower ([4]; 125 g ai/ha, preemergence): 40; Plant response rating (0 = no effect, 100 = complete control), Bermudagrass ([5]; 125 g ai/ha, preemergence): 95; Plant response rating, Bermudagrass [5, 10]: 95; Plant response rating (0 = no effect, 100 = complete control), Cupgrass, Woolly ([6]; 125 g ai/ha, preemergence): 90; Plant response rating, Cupgrass, Woolly [6, 10]: 95; Plant response rating (0 = no effect, 100 = complete control), Foxtail, Giant ([7]; 125 g ai/ha, preemergence): 90
CCN1N=C(C(C)(C)C)CC1C(=O)Nc1cc(C(=O)N2CC=CC2)ccc1F (racemic) [Compound 310] | 0 | 10 | 100 | 0 | 0 | 15 | 35 | 50 | 70 | 90 | 0 | 0 | 50 | 100 | 5 | 70 | 5 | 85 | 100 | 0 | Plant response rating, Sunflower [4, 8]: 0; Plant response rating, Bermudagrass [5, 16]: 85; Bermudagrass plant response rating [5, 17]: 100; Plant response rating, Cupgrass, Woolly [6, 16]: 10; Plant response rating, Foxtail, Giant [7, 16]: 40
CCn1nc(C2(C)CC2)cc1C(=O)Nc1cc(C(=O)N2CC=CC2)ccc1F [Compound 301] | 20 | 100 | 100 | 0 | 10 | 20 | 50 | 75 | 90 | 95 | 0 | 0 | 80 | 90 | 10 | 70 | 35 | 95 | 100 | 5 | Plant response rating, Sunflower [4, 8]: 0; Plant response rating, Bermudagrass [5, 16]: 90; Bermudagrass plant response rating [5, 17]: 95; Plant response rating, Cupgrass, Woolly [6, 16]: 50; Plant response rating, Cupgrass, Woolly [6, 10]: 90; Plant response rating, Foxtail, Giant [7, 16]: 60
CCNC(=O)c1ccc(F)c(NC(=O)c2cn(C(C)(C)C)nc2CC)c1 [Compound 193] | 0 | 70 | – | 0 | 10 | – | 30 | 55 | 85 | 90 | 0 | – | 60 | 85 | 10 | 60 | 40 | 80 | – | 0 | Plant response rating, Velvetleaf [1, 16]: 0; Velvetleaf plant response rating [1, 18]: 100; Nutsedge, Yellow plant response rating [2, 18]: 60; Plant response rating, Sunflower [4, 8]: 0; Plant response rating, Sunflower [4, 16]: 0; Sunflower plant response rating [4, 18]: 50; Plant response rating, Bermudagrass [5, 16]: 80; Bermudagrass plant response rating [5, 17]: 100; Plant response rating, Cupgrass, Woolly [6, 16]: 40; Cupgrass, Woolly plant response rating [6, 18]: 70; Plant response rating, Foxtail, Giant [7, 16]: 50; Foxtail, Giant plant response rating [7, 18]: 100
